We go through 18 compounds from patent US12257243B2, “5-hydroxy-7-oxabicyclo[2.2.1]heptane-2-carboxamide derivatives for inducing chondrogenesis for treating joint damage” (NOVARTIS AG, priority 2018, dated 2025).

As a reminder, the IC50 is the concentration that gives 50% inhibition.

The assay addresses ALP in normal human articular chondrocytes (NHACs). Put plainly: Alkaline Phosphatase (ALP) activity assay (staining and quantitation) in NHACs, prevention of chondrocyte hypertrophy. The format is cell-based. The note with it: human IL-1 beta 10 ng/mL, 12 days; for IC50: Fast Blue RR staining, high content imaging, read-out: ALP in NHAC IC50; for ALP in NHAC (% Efficacy) / Emax: value in parentheses; for Emax: read-out: ALP in NHAC (% Efficacy). Here is the method: The compounds of the present invention were evaluated in the Alkaline Phosphatase (ALP) activity assay to determine the ability of the compounds to prevent chondrocyte hypertrophy in normal human articular chondrocytes (NHACs).
Normal human articular chondrocytes (NHACs) were purchased from PromoCell (Heidelberg, Germany) and grown in Chondrocyte Growth Medium (CGM; Lonza, Walkersville, Md.).
NHACs were expanded in Chondrocyte Growth Medium (CGM) from Lonza until they reached a 60-80% confluency. To initiate differentiation, 7,500 cells were plated/well with indicated test compound dose in 384-well Cell Carrier Ultra plates (Perkin Elmer) with DMEM (SH30022—HyClone) containing 10% FBS (35-015-CV—Corning), 1% Pen/Strep antibiotics (SV30010—HyClone), and 1% Normocin (50 mg/mL—InvivoGen). Cells with test compounds were incubated at 37° C., 5% CO2 for 5 hours and then added human IL-1 beta (AF-200-1B—Peprotech) to each well at a final concentration of 10 ng/mL and incubated at 37° C., 5% CO2 for 12 days.
To detect the presence of hypertrophic cells, NHACs were fixed with 4% paraformaldehyde and Hoechst 33342 (Invitrogen) dye for 30 minutes, rinsed in PBS, then stained with Fast Blue RR Salt (F0500—Sigma) with Naphthol AS-MX Phosphate Alkaline Solution, 0.25% (855—Sigma-Aldrich).
The staining was imaged by fluorescent microscopy, using the 561 nm wavelength, and/or quantified by high content imaging with the Image press Confocal (Molecular Devices, Sunnyvale, Calif.). Data analyses were performed with a customized multiwavelength cell-scoring application.

Like-named read-outs stand apart in the source and are kept apart here. Some results are limits rather than exact numbers.

Regarding `Cn1cc([C@H]2[C@H]3O[C@H](C[C@@H]3O)[C@@H]2C(=O)Nc2cc(C(F)(F)F)ccn2)c(C(F)(F)F)n1` (single isomer, unassigned) [Example 38a, (1R,2R,3S,4R,5S)-5-hydroxy-3-(1-methyl-3-(trifluoromethyl)-1H-pyrazol-4-yl)-N-(4-(trifluoromethyl)pyridin-2-yl)-7-oxabicyclo[2.2.1]heptane-2-carboxamide or (1S,2S,3R,4S,5R)-5-hydroxy-3-(1-methyl-3-(trifluoromethyl)-1H-pyrazol-4-yl)-N-(4-(trifluoromethyl)pyridin-2-yl)-7-oxabicyclo[2.2.1]heptane-2-carboxamide], the 50% inhibitory concentration (IC50) was determined as 5.9 µM and the “ALP in NHAC (% Efficacy)” value is 81%.
Turning to `Cc1ccc(NC(=O)[C@@H]2[C@@H](c3cn(C(C)C)nc3C(F)(F)F)[C@H]3O[C@@H]2C[C@@H]3O)cc1C(F)(F)F` (racemic) [Example 89, rac-(1R,2R,3S,4R,5S)-5-hydroxy-3-(1-isopropyl-3-trifluoromethyl)-1H-pyrazol-4-yl)-N-(4-methyl-3-(trifluoromethyl)phenyl)-7-oxabicyclo[2.2.1]heptane-2-carboxamide], where the note is “Chondrocyte, 288 h”, the 50% inhibitory concentration (IC50) was 19 µM and the Emax was 40%.
`CC(C)n1cc([C@H]2[C@H]3O[C@H](C[C@@H]3O)[C@@H]2C(=O)Nc2ccc(C(F)(F)F)c(Cl)c2)c(C(F)(F)F)n1` (racemic) [Example 87, rac-(1R,2R,3S,4R,5S)—N-(3-chloro-4-trifluoromethyl)phenyl)-5-hydroxy-3-(1-isopropyl-3-(trifluoromethyl)-1H-pyrazol-4-yl)-7-oxabicyclo[2.2.1]heptane-2-carboxamide]: under “Chondrocyte, 288 h”, the half-maximal inhibitory concentration (IC50) was found to be 14 µM and the Emax amounted to 64%.
Regarding `Cn1cc([C@H]2[C@H]3O[C@H](C[C@@H]3O)[C@@H]2C(=O)Nc2cc(C(F)(F)F)ccc2C#N)c(C(F)(F)F)n1` (single isomer, unassigned) [Example 49b, (1R,2R,3S,4R,5N-(2-cyano-5-(trifluoromethyl)phenyl)-5-hydroxy-3-(1-methyl-3-(trifluoromethyl)-1H-pyrazol-4-yl)-7-oxabicyclo[2.2.1]heptane-2-carboxamide or (1S,2S,3R,4S,5R)—N-(2-cyano-5-(trifluoromethyl)phenyl)-5-hydroxy-3-(1-methyl-3-(trifluoromethyl)-1H-pyrazol-4-yl)-7-oxabicyclo[2.2.1]heptane-2-carboxamide], the half-inhibitory concentration (IC50) came out at 23 µM and the “ALP in NHAC (% Efficacy)” value was 54%.
In the case of `Cc1cc(NC(=O)[C@@H]2[C@@H](c3cccc(C(F)(F)F)c3)[C@H]3O[C@@H]2C[C@@H]3O)cnc1C(F)(F)F` (racemic) [Example 28, rac-(1R,2R,3S,4R,5S)-5-hydroxy-N-(5-methyl-6-(trifluoromethyl)pyridin-3-yl)-3-(3-(trifluoromethyl)phenyl)-7-oxabicyclo[2.2.1]heptane-2-carboxamide], under “Chondrocyte, 288 h”, the IC50 amounted to 6 µM and the Emax is 98%.
For `COc1cc([C@H]2[C@H]3O[C@H](C[C@@H]3O)[C@@H]2C(=O)Nc2ccc(C(F)(F)F)cc2)ccn1` (racemic) [Example 67, rac-(1R,2R,3S,4R,5S)-5-hydroxy-3-(2-methoxypyridin-4-yl)-N-(4-(trifluoromethyl)phenyl)-7-oxabicyclo[2.2.1]heptane-2-carboxamide] the same measures were above 30 µM and 27%.
For `O=C(Nc1cccc(C(F)(F)F)c1)[C@@H]1[C@@H](c2cncc(C(F)(F)F)c2)[C@H]2O[C@@H]1C[C@@H]2O` (racemic) [Example 81, rac-(1R,2R,3S,4R,5S)-5-hydroxy-N-(3-(trifluoromethyl)phenyl)-3-(5-(trifluoromethyl)pyridin-3-yl)-7-oxabicyclo[2.2.1]heptane-2-carboxamide] the same measures were 19 µM and 59%.
Take `Cn1cc([C@H]2[C@H]3O[C@H](C[C@@H]3O)[C@@H]2C(=O)Nc2cc(C(F)(F)F)ccc2F)c(C(F)(F)F)n1` (racemic) [Example 52, rac-(1R,2R,3S,4R,5S)—N-(2-fluoro-5-(trifluoromethyl)phenyl)-5-hydroxy-3-(1-methyl-3-(trifluoromethyl)-1H-pyrazol-4-yl)-7-oxabicyclo[2.2.1]heptane-2-carboxamide]: where the note is “Chondrocyte, 288 h”, the half-inhibitory concentration (IC50) amounted to 4.2 µM and the Emax came to 73%.
As for `O=C(Nc1cccc(C(F)(F)F)c1F)[C@@H]1[C@@H](c2cccc(C(F)(F)F)c2)[C@H]2O[C@@H]1C[C@@H]2O` (racemic) [Example 15, rac-(1R,2R,3S,4R,5S)—N-(2-fluoro-3-(trifluoromethyl)phenyl)-5-hydroxy-3-(3-(trifluoromethyl)phenyl)-7-oxabicyclo[2.2.1]heptane-2-carboxamide], for the setting “Chondrocyte, 288 h”, the IC50 worked out at 7 µM and the Emax stood at 105%.
Turning to `Cn1nc(C(F)(F)F)cc1[C@H]1[C@H]2O[C@H](C[C@@H]2O)[C@@H]1C(=O)Nc1cc(C(F)(F)F)ccn1` (racemic) [Example 74, rac-(1R,2R,3,4R,5)-5-hydroxy-3-(1-methy-3-(trifluoromethyl)-1H-pyrazol-5-yl)-N-(4-(trifluoromethyl)pyridin-2-yl-7-oxabicyclo[2.2.1]heptane-2-carboxamide], under “Chondrocyte, 288 h”, the IC50 is 11 µM and the Emax amounted to 64%.
Consider `COc1ccc(C(F)(F)F)cc1NC(=O)[C@@H]1[C@@H](c2cccc(C(F)(F)F)c2)[C@H]2O[C@@H]1C[C@@H]2O` (racemic) [Example 22, rac-(1R,2R,3S,4R,5S)-5-hydroxy-N-(2-methoxy-5-(trifluoromethyl)phenyl-3-(3-(trifluoromethyl)phenyl)-7-oxabicyclo[2.2.1]heptane-2-carboxamide], for which, where the note is “Chondrocyte, 288 h”, the IC50 was 27 µM and the Emax amounted to 75%.
Regarding `O=C(Nc1cccc(C(F)(F)F)c1)[C@@H]1[C@@H](c2cnc(C(F)(F)F)nc2)[C@H]2O[C@@H]1C[C@@H]2O` (racemic) [Example 83, rac-(1R,2R,3S,4R,5S)-5-hydroxy-N-(3-(trifluoromethyl)phenyl)-3-(2-(trifluoromethyl)pyrimidin-5-yl)-7-oxabicyclo[2.2.1]heptane-2-carboxamide], under “Chondrocyte, 288 h”, the half-maximal inhibitory concentration (IC50) is 24 µM and the Emax was determined as 43%.
Regarding `Cn1cc([C@H]2[C@H]3O[C@H](C[C@@H]3O)[C@@H]2C(=O)Nc2ccc(C#N)c(C(F)(F)F)c2)c(C(F)(F)F)n1` (racemic) [Example 51, rac-(1R,2R,3S,4R,5S)—N-(4-cyano-3-(trifluoromethyl)phenyl)-5-hydroxy-3-(1-methyl-3-(trifluoromethyl-1H-pyrazol-4-yl)-7-oxabicyclo[2.2.1]heptane-2-carboxamide], where the note is “Chondrocyte, 288 h”, the IC50 was above 30 µM and the Emax came to 34%.
As for `O=C(Nc1cc(C(F)(F)F)cc(Cl)n1)[C@@H]1[C@@H](c2cccc(C(F)(F)F)c2)[C@H]2O[C@@H]1C[C@@H]2O` (racemic) [Example 5, rac-(1R,2R,3S,4R,5S)—N-(6-chloro-4-(trifluoromethyl)pyridin-2-yl)-5-hydroxy-3-(3-(trifluoromethyl)phenyl)-7-oxabicyclo[2.2.1]heptane-2-carboxamide], for the setting “Chondrocyte, 288 h”, the IC50 is 27 µM and the Emax was found to be 82%.
Regarding `O=C(Nc1cc(Cl)cc(C(F)(F)F)c1)[C@@H]1[C@@H](c2cccc(C(F)(F)F)c2)[C@H]2O[C@@H]1C[C@@H]2O` (racemic) [Example 19, rac-(1R,2R,3S,4R,5)-N-(3-chloro-5-(trifluoromethyl)phenyl)-5-hydroxy-3-(3-(trifluoromethyl)phenyl)-7-oxabicyclo[2.2.1]heptane-2-carboxamide], under “Chondrocyte, 288 h”, the IC50 turned out to be 11 µM and the Emax is 102%.
Turning to `CC(C)n1cc([C@H]2[C@H]3O[C@H](C[C@@H]3O)[C@@H]2C(=O)Nc2cccc(C(F)(F)F)c2)c(C(F)(F)F)n1` (racemic) [Example 59, rac-(1R,2R,3S,4R,5S)-5-hydroxy-3-(1-isopropyl-3-(trifluoromethyl)-1H-pyrazol-4-yl)-N-(3-(trifluoromethyl)phenyl)-7-oxabicyclo[2.2.1]heptane-2-carboxamide], under “Chondrocyte, 288 h”, the IC50 is 14 µM and the Emax was found to be 70%.
The like results for `COc1cc([C@H]2[C@H]3O[C@H](C[C@@H]3O)[C@@H]2C(=O)Nc2cccc(C(F)(F)F)c2)ccn1` (racemic) [Example 70, rac-(1R,2R,3S,4R,5S)-5-hydroxy-3-(2-methoxypyridin-4-yl)-N-(3-(trifluoromethyl)phenyl)-7-oxabicyclo[2.2.1]heptane-2-carboxamide] were, in that order, above 30 µM and 13%.
Consider `Cn1cc([C@H]2[C@H]3O[C@H](C[C@@H]3O)[C@@H]2C(=O)Nc2ccc(C(F)(F)F)c(Cl)c2)c(C(F)(F)F)n1` (racemic) [Example 58, rac-(1R,2R,3S,4R,5S)—N-(3-chloro-4-(trifluoromethyl)phenyl)-5-hydroxy-3-(1-methyl-3-(trifluoromethyl)-1H-pyrazol-4-yl)-7-oxabicyclo[2.2.1]heptane-2-carboxamide], for which, for the setting “Chondrocyte, 288 h”, the IC50 came out at 10 µM and the Emax is 102%.
